Source: patent publication US20240018124A1, “MODULATORS OF FPR1 AND METHODS OF USING THE SAME” (BIOFRONT LTD, priority 2021, published 2024)

Legend:
[1] = target: T1, FPR1 (Homo sapiens (Human), UniProt P21462); assay: Cyclic adenosine monophosphate (cAMP) assay, CHO-K1 cells stably overexpressing hFPR1; format: cell-based; settings: 2.5 μM Forskolin and 0.25 nM WKYMVm (FPR1 agonist)
Experimental: Cyclic Adenosine Monophosphate (cAMP) Assay
CHO-K1 cells stably overexpressing hFPR1 were plated into 384-well cell culture plates (2,000/well/5 μL) in 1× Stimulation Buffer (LANCE Ultra cAMP Kit, Perkin Elmer, TRF0263). 1 μL compound solution (prepared in ddH2O containing 0.2% DMSO) was added to each well. Plates were centrifuged briefly, and cells were incubated at 37° C. in 5% CO2 for 10 minutes. 4 μL solution containing 2.5 μM Forskolin and 0.25 nM WKYMVm (an FPR1 agonist, GLPBIO, GC15140) was then added to each well. 5 μL of Eu-cAMP solution (diluted to manufacturer's recommended working concentration in Detection Buffer, LANCE Ultra cAMP Kit) and 5 μL of ULight-anti-cAMP solution (diluted in Detection Buffer, LANCE Ultra cAMP Kit) were added to each well. Plates were centrifuged briefly, and cells were incubated at room temperature for 1 hour. Fluorescence emission at 665 nm and 620 nm from the samples was measured by a Perkin Elmer Envision instrument.
(§1) The effects of the compounds of the present disclosure on regulating the FPR1-mediated cell signaling were measured by monitoring the cellular cAMP level change and anti-reactive oxygen species formation in human neutrophils in the presence of an FPR1 agonist, respectively, as illustrated by the examples in Table 1.

[2] = target: T1, FPR1; assay: Reactive oxygen species (ROS) assay in human neutrophils stimulated with fMLP; format: cell-based; settings: human neutrophils from whole blood; fMLP (500 nM); DCFH-DA fluorescence; read-out: Anti-ROS IC50
Experimental: Reactive Oxygen Species (ROS) Assay
Human whole blood was collected, and ACK lysis buffer (ThermoFisher, A1049201) was added at 3 times the volume of the blood sample to lyse the red blood cells. The sample was incubated on ice for 15 minutes, and gently mixed twice during the incubation. 10 mL DPBS was then added, and the sample was centrifuged for 8 minutes. After removing the supernatant, remaining cells were resuspended in RPMI1640 medium containing 3% FBS and centrifuged again for 10 minutes. After removing the supernatant, cells were again resuspended in RPMI1640 medium containing 3% FBS. Neutrophil cell count was determined using FACS analysis by APC-labeled CD11b antibody (Biolegend, 101211) and FITC-labeled CD66b antibody (Biolegend, 305104). Neutrophils were then plated into 96-well plates (300,000/well). Plates were centrifuged and supernatant was removed. Cells were resuspended in 80 μL of compound solution (prepared in RPMI1640 medium containing 3% FBS), then incubated at room temperature for 15 minutes. 20 μL solution containing DCFH-DA (at the manufacturer's recommended concentration, Yeasen Biotechnology, 50101ES01) and fMLP (500 nM) was then added. Cells were incubated at 37° C. in 5% CO2 for 20 minutes away from light. After incubation, cells were placed on ice for 5 minutes, washed twice with 200 μL ice-cold DPBS, then resuspended in ice-cold DPBS at 100 µL/well. Fluorescence from each sample was measured at 485 nm excitation and 535 nm emission.
as §1

T1 sequence (P21462 whole entry): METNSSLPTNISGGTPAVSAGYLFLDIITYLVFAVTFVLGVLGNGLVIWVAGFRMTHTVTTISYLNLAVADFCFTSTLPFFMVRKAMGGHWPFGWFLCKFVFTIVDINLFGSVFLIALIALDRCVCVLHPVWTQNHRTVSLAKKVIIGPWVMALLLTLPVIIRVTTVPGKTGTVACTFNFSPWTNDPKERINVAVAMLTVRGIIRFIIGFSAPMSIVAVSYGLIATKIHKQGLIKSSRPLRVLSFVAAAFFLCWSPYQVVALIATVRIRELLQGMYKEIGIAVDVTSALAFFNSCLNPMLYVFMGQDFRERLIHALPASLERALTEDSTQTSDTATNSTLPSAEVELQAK

Structure (SMILES) | IC50 [1] [nM] | IC50 [2] [nM]
C[C@H](NC(=O)c1c(NS(=O)(=O)c2ccc(Cl)cc2)c(C2=CCC3(CC2)OCCO3)nn1C)C(C)(C)C [Compound 24, (S)-4-((4-chlorophenyl)sulfonamido)-N-(3,3-dimethylbutan-2-yl)-1-methyl-3-(1,4-dioxaspiro[4.5]dec-7-en-8-yl)-1H-pyrazole-5-carboxamide] | 1000 to 25000 | 1000 to 25000
C[C@H](NC(=O)c1c(NS(=O)(=O)c2ccc(C#N)cc2)c(C2CCOCC2)nn1C)C(C)(C)C [Compound 25, (S)-4-((4-cyanophenyl)sulfonamido)-N-(3,3-dimethylbutan-2-yl)-1-methyl-3-(tetrahydro-2H-pyran-4-yl)-1H-pyrazole-5-carboxamide] | 100 to 1000 | 100 to 1000
C[C@H](NC(=O)c1c(NS(=O)(=O)c2ccc(C3CC3)cc2)c(-c2ccc(F)cc2)nn1C)C(C)(C)C [Compound 26, (S)-4-((4-cyclopropylphenyl)sulfonamido)-N-(3,3-dimethylbutan-2-yl)-3-(4-fluorophenyl)-1-methyl-1H-pyrazole-5-carboxamide] | 1000 to 25000 | 100 to 1000
COc1ccc(S(=O)(=O)Nc2c(-c3ccc(F)cc3)nn(C)c2C(=O)N[C@@H](C)C(C)(C)C)cc1 [Compound 27, (S)—N-(3,3-dimethylbutan-2-yl)-3-(4-fluorophenyl)-4-((4-methoxyphenyl)sulfonamido)-1-methyl-1H-pyrazole-5-carboxamide] | 100 to 1000 | 100 to 1000
C[C@H](NC(=O)c1c(NS(=O)(=O)c2ccc(C#N)cc2F)c(-c2ccc(F)cc2)nn1C)C(C)(C)C [Compound 28, (S)-4-((4-cyano-2-fluorophenyl)sulfonamido)-N-(3,3-dimethylbutan-2-yl)-3-(4-fluorophenyl)-1-methyl-1H-pyrazole-5-carboxamide] | 100 to 1000 | 100 to 1000
COCc1ccccc1-c1nn(C)c(C(=O)N[C@@H](C)C(C)(C)C)c1NS(=O)(=O)c1ccc(C)cc1 [Compound 33, (S)—N-(3,3-dimethylbutan-2-yl)-3-(2-(methoxymethyl)phenyl)-1-methyl-4-((4-methylphenyl)sulfonamido)-1H-pyrazole-5-carboxamide] | 100 to 1000 | 100 to 1000
C[C@H](NC(=O)c1c(NS(=O)(=O)c2ccc(Cl)cc2)c(C2CCC(F)(F)CC2)nn1C)C(C)(C)C [Compound 37, (S)-4-((4-chlorophenyl)sulfonamido)-3-(4,4-difluorocyclohexyl)-N-(3,3-dimethylbutan-2-yl)-1-methyl-1H-pyrazole-5-carboxamide] | 100 to 1000 | 100 to 1000
C[C@H](NC(=O)c1c(NS(=O)(=O)c2ccc(Cl)cc2)c(-c2ccc(F)cc2)nn1C)C(C)(C)C [Compound 38, (S)-4-((4-chlorophenyl)sulfonamido)-N-(3,3-dimethylbutan-2-yl)-3-(4-fluorophenyl)-1-methyl-1H-pyrazole-5-carboxamide] | 100 to 1000 | 100 to 1000
C[C@H](NC(=O)c1c(NS(=O)(=O)c2ccc(Cl)cc2)c(-c2ccccc2C(F)F)nn1C)C(C)(C)C [Compound 39, (S)-4-((4-chlorophenyl)sulfonamido)-3-(2-(difluoromethyl)phenyl)-N-(3,3-dimethylbutan-2-yl)-1-methyl-1H-pyrazole-5-carboxamide] | 100 to 1000 | 100 to 1000
C[C@H](NC(=O)c1c(NS(=O)(=O)c2ccc(C#N)cc2)c(-c2ccc(F)cc2F)nn1C)C(C)(C)C [Compound 41, (S)-4-((4-cyanophenyl)sulfonamido)-3-(2,4-difluorophenyl)-N-(3,3-dimethylbutan-2-yl)-1-methyl-1H-pyrazole-5-carboxamide] | 100 to 1000 | 100 to 1000
COCc1ncccc1-c1nn(C)c(C(=O)N[C@@H](C)C(C)(C)C)c1NS(=O)(=O)c1ccc(C#N)cc1 [Compound 42, (S)-4-((4-cyanophenyl)sulfonamido)-N-(3,3-dimethylbutan-2-yl)-3-(2-(methoxymethyl)pyridin-3-yl)-1-methyl-1H-pyrazole-5-carboxamide] | > 25000 | > 25000
C[C@H](NC(=O)c1c(NS(=O)(=O)c2ccc(C#N)cc2)c(C2=CCC(F)(F)CC2)nn1C)C(C)(C)C [Compound 43, (S)-4-((4-cyanophenyl)sulfonamido)-3-(4,4-difluorocyclohex-1-en-1-yl)-N-(3,3-dimethylbutan-2-yl)-1-methyl-1H-pyrazole-5-carboxamide] | 1000 to 25000 | 100 to 1000
C[C@H](NC(=O)c1c(NS(=O)(=O)c2ccc(C#N)cc2)c(C2CCC(F)(F)CC2)nn1C)C(C)(C)C [Compound 44, (S)-4-((4-cyanophenyl)sulfonamido)-3-(4,4-difluorocyclohexyl)-N-(3,3-dimethylbutan-2-yl)-1-methyl-1H-pyrazole-5-carboxamide] | 100 to 1000 | 100 to 1000
